Assays:
Experiment in all cases: NCI SRB growth inhibition (single dose 10 µM / five-dose)
Assay type in all cases: cell-based, human
K-562 = system: K-562
Summary of the method: (§1)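 Cytotoxicity in the NCI panel of sixty human tumour lines was measured by sulforhodamine B protein staining. Each agent was tested in DMSO-derived dilutions at five concentrations, and TGI was read where treated absorbance equalled time-zero absorbance.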

T-47D = system: T-47D
Summary of the method: as §1

CCRF-CEM = system: CCRF-CEM
Summary of the method: as §1

EKVX = system: EKVX
Summary of the method: as §1

PC-3 = PC-3 (Prostate cancer), 10 µM
Summary of the method: as §1

OVCAR-3 = system: OVCAR-3
Summary of the method: as §1

SF-295 = system: SF-295
Summary of the method: as §1

HCC-2998 = system: HCC-2998
Summary of the method: as §1

UACC-257 = system: UACC-257
Summary of the method: as §1

A498 = system: A498
Summary of the method: as §1

SK-MEL-28 = system: SK-MEL-28
Summary of the method: as §1

OVCAR-8 = system: OVCAR-8
Summary of the method: as §1

SK-MEL-2 = system: SK-MEL-2
Summary of the method: as §1

COLO 205 = system: COLO 205
Summary of the method: as §1

NCI-H460 = system: NCI-H460
Summary of the method: as §1

NCI-H23 = system: NCI-H23
Summary of the method: as §1

OVCAR-5 = system: OVCAR-5
Summary of the method: as §1

RPMI-8226 = system: RPMI-8226
Summary of the method: as §1

SW-620 = system: SW-620
Summary of the method: as §1

MALME-3 M = system: MALME-3 M
Summary of the method: as §1

IGROV1 = system: IGROV1
Summary of the method: as §1

TK-10 = system: TK-10
Summary of the method: as §1

A549/ATCC = system: A549/ATCC
Summary of the method: as §1

UACC-62 = system: UACC-62
Summary of the method: as §1

HS 578 T = system: HS 578 T
Summary of the method: as §1

MCF7 = system: MCF7
Summary of the method: as §1

## N'-(2-Hydroxybenzylidene)-2-phenyl-1H-benzo[d]imidazole-5-carbohydrazide [8a]
K-562; K-562 (Leukemia), 10 µM
  GI%: 78.58%
K-562; K-562, Leukemia, five-dose
  GI50: 3.39 µM
T-47D; T-47D (Breast cancer), 10 µM
  GI%: 93.65%
T-47D; T-47D, Breast cancer, five-dose
  GI50: 3.38 µM
CCRF-CEM; CCRF-CEM (Leukemia), 10 µM
  GI%: 88.16%
CCRF-CEM; CCRF-CEM, Leukemia, five-dose
  GI50: 0.26 µM
EKVX; EKVX (Non-small cell lung cancer), 10 µM
  GI%: 96.49%
EKVX; EKVX, Non-small cell lung cancer, five-dose
  GI50: 1.85 µM
PC-3
  GI%: 90.74%
OVCAR-3; OVCAR-3 (Ovarian cancer), 10 µM
  GI%: L (GI% > 100)
OVCAR-3; OVCAR-3, Ovarian cancer, five-dose
  GI50: 1.94 µM
SF-295; SF-295 (CNS cancer), 10 µM
  GI%: L (GI% > 100)
SF-295; SF-295, CNS cancer, five-dose
  GI50: 2.7 µM
HCC-2998; HCC-2998 (Colon cancer), 10 µM
  GI%: 73.20%
HCC-2998; HCC-2998, Colon cancer, five-dose
  GI50: 3.91 µM
UACC-257; UACC-257 (Melanoma), 10 µM
  GI%: 88.80%
UACC-257; UACC-257, Melanoma, five-dose
  GI50: 4 µM
A498; A498 (Renal cancer), 10 µM
  GI%: – (GI% < 5%)
A498; A498, Renal cancer, five-dose
  GI50: 16.9 µM
SK-MEL-28; SK-MEL-28 (Melanoma), 10 µM
  GI%: 82.67%
SK-MEL-28; SK-MEL-28, Melanoma, five-dose
  GI50: 4.62 µM
OVCAR-8; OVCAR-8 (Ovarian cancer), 10 µM
  GI%: L (GI% > 100)
OVCAR-8; OVCAR-8, Ovarian cancer, five-dose
  GI50: 2.49 µM
SK-MEL-2; SK-MEL-2 (Melanoma), 10 µM
  GI%: 60.21%
SK-MEL-2; SK-MEL-2, Melanoma, five-dose
  GI50: 3.19 µM
COLO 205; COLO 205 (Colon cancer), 10 µM
  GI%: L (GI% > 100)
COLO 205; COLO 205, Colon cancer, five-dose
  GI50: 1.97 µM
NCI-H460; NCI-H460 (Non-small cell lung cancer), 10 µM
  GI%: L (GI% > 100)
NCI-H460; NCI-H460, Non-small cell lung cancer, five-dose
  GI50: 2.37 µM
NCI-H23; NCI-H23 (Non-small cell lung cancer), 10 µM
  GI%: 83.12%
NCI-H23; NCI-H23, Non-small cell lung cancer, five-dose
  GI50: 3.31 µM
OVCAR-5; OVCAR-5 (Ovarian cancer), 10 µM
  GI%: 77.04%
OVCAR-5; OVCAR-5, Ovarian cancer, five-dose
  GI50: 8.5 µM
RPMI-8226; RPMI-8226 (Leukemia), 10 µM
  GI%: 88.59%
RPMI-8226; RPMI-8226, Leukemia, five-dose
  GI50: 1.19 µM
SW-620; SW-620 (Colon cancer), 10 µM
  GI%: 77.39%
SW-620; SW-620, Colon cancer, five-dose
  GI50: 3.48 µM
MALME-3 M; MALME-3 M (Melanoma), 10 µM
  GI%: 99.32%
MALME-3 M; MALME-3 M, Melanoma, five-dose
  GI50: 1.88 µM
IGROV1; IGROV1 (Ovarian cancer), 10 µM
  GI%: 82.83%
IGROV1; IGROV1, Ovarian cancer, five-dose
  GI50: 3.9 µM
TK-10; TK-10 (Renal cancer), 10 µM
  GI%: 65.04%
TK-10; TK-10, Renal cancer, five-dose
  GI50: 4.53 µM
A549/ATCC; A549/ATCC (Non-small cell lung cancer), 10 µM
  GI%: L (GI% > 100)
A549/ATCC; A549/ATCC, Non-small cell lung cancer, five-dose
  GI50: 3.41 µM
UACC-62; UACC-62 (Melanoma), 10 µM
  GI%: 75.88%
UACC-62; UACC-62, Melanoma, five-dose
  GI50: 3.66 µM
HS 578 T; HS 578 T (Breast cancer), 10 µM
  GI%: L (GI% > 100)
HS 578 T; HS 578 T, Breast cancer, five-dose
  GI50: 2.49 µM
MCF7; MCF7 (Breast cancer), 10 µM
  GI%: 96.94%
MCF7; MCF7, Breast cancer, five-dose
  GI50: 2.63 µM

— article PMC10893631, “Receptor-based pharmacophore modeling, molecular docking, synthesis and biological evaluation of novel VEGFR-2, FGFR-1, and BRAF multi-kinase inhibitors” (BMC Chemistry, 2024)
